Experimental data published in article PMC10976043, “Function and Mechanism of Antiviral Wasp Venom Peptide Protopolybia-MP III and Its Derivatives against HSV-1” (Toxins, 2024).
Where two headings read alike, the source gives them in different places. Ends that are not written are not given here.

Experiments:
HSV-1 ICP0 = type: cell-based, herpes simplex virus type 1; conditions: for effect on intracellular HSV-1 ICP0 expression level: HSV-1 MOI 1, 24 h, Western blotting; for inhibition rate on intracellular HSV-1 ICP0 expression level: ICP0, 24 h
Description: (§1) (A) Amino acid sequence of Protopolybia-MP III. Basic residues are labeled blue, and acidic residues are labeled red. (B,C) Suppression of intracellular HSV-1 infection by Protopolybia-MP III. Cells were preincubated with Protopolybia-MP III at different concentrations or PBS for 1 h and then infected with HSV-1 at a multiplicity of infection (MOI) of 1. After 24 h, the cells were collected. Intracellular HSV-1 RNA was analyzed by qPCR (B), and intracellular HSV-1 ICP0 protein levels were analyzed by Western blotting (C). (D) Suppression of Protopolybia-MP III on extracellular HSV-1 particles. Cells were treated with Protopolybia-MP III at different concentrations or PBS for 24 h, and then the supernatant was collected and evaluated in a plaque formation assay. (E) Cytotoxicity of Protopolybia-MP III to Vero cells. Cells were treated with Protopolybia-MP III or PBS at different concentrations for 24 h, and then the cytotoxicity was determined by CCK8 assay. * p < 0.05. ** p < 0.01. *** p < 0.001.
(§2) Figure 2 Protopolybia-MP III inhibits HSV-1 replication in human cell lines. (A) Cytotoxicities of Protopolybia-MP III to A549 cells, HCEC, and SK-N-MC. Cells were treated with Protopolybia-MP III at different concentrations or PBS for 24 h, and then cytotoxicities were determined by the CCK8 assay. (B,C) Suppression of intracellular HSV-1 infection by Protopolybia-MP III in A549 cells, HCEC, and SK-N-MC. Cells were preincubated with Protopolybia-MP III at different concentrations or PBS for 1 h and then infected with HSV-1 at an MOI of 1. After 24 h, the cells were collected. Intracellular HSV-1 RNA was analyzed by qPCR (B), and intracellular HSV-1 ICP0 protein expression levels were analyzed by Western blotting (C). (D) Inhibition of Protopolybia-MP III on extracellular HSV-1 particles in A549 cells, HCEC, and SK-N-MC. Cells were treated with Protopolybia-MP III at different concentrations or PBS for 24 h, and then the supernatant was collected and evaluated in a plaque formation assay. * p < 0.05. ** p < 0.01. *** p < 0.001.
Figure 7 Antiviral activity analysis of Protopolybia-MP III mutants. (A) Amino acid sequences of Protopolybia-MP III mutants. Identical amino acids among Protopolybia-MP I, Protopolybia-MP III, and its mutants are marked in blue, and different amino acids are marked in red. (B) Suppression of Protopolybia-MP I, Protopolybia-MP III, and its mutants on intracellular HSV-1 content. Cells were preincubated with 20 μg/mL peptides or PBS for 1 h and then infected with HSV-1 at an MOI of 1. After 24 h, the cells were collected. Intracellular HSV-1 ICP0 protein levels were analyzed by Western blotting. The ratios of HSV-1 ICP0 to GAPDH were calculated by ImageJ software. (C) Inhibition of HSV-1 free virion infectivity by Protopolybia-MP I, Protopolybia-MP III, and its mutants. HSV-1 (MOI = 1) and 5 μg/mL peptides or PBS were coincubated at 37 °C for 1 h, and the mixtures were then used to infect Vero cells. After 24 h, cells were collected, and intracellular HSV-1 RNA was analyzed by qPCR. ns, no significance. * p < 0.05. ** p < 0.01. *** p < 0.001.
HSV-1 was kindly provided by Professor Zhijian Cao of Wuhan University. Cells were infected with HSV-1 at an MOI of 1 for 24 h. Then, cells were collected for qPCR, Western blotting, and immunofluorescence assays, and the extracellular supernatant was used for plaque formation assays.
Cells were collected and lysed in 1% SDS. The cell lysate was heated at 100 °C for 20 min and centrifuged at 12,000 rpm at 4 °C for 15 min, and then the supernatant was collected and assayed with a BCA Protein Quantification Kit (Vazyme). Equal amounts of protein were separated using a PAGE Gel Fast Preparation Kit (10%) (Epizyme Biotech, Wuhan, China) and transferred to nitrocellulose (NC) membranes (Millipore, Wuhan, China). […]

HSV-1 = assay: Plaque formation assay of extracellular HSV-1 particles; type: cell-based, herpes simplex virus type 1; conditions: supernatant in plaque formation assay
Description: as §1, §2
Vero cells seeded in a 24-well plate at 100% confluence were infected with virus diluent or supernatant. After 1 h of absorption at 37 °C, the supernatant was removed. Cells were washed three times with PBS and replenished with a plaque-covering layer (MEM with 2% FBS and 1.5% carboxymethylcellulose). After an incubation period of approximately 3 days, the cells were stained with 1% crystal violet containing 10% methanol for 0.5 h. Then, the plaques were counted, and the viral titer was calculated according to the plaque number and dilution.

[1] = test system: human neuroepithelial cells (SK-N-MC); assay: CCK8 cytotoxicity assay, SK-N-MC; type: cell-based; conditions: 40 μg/mL, 24 h
Description: as §2
Cells were seeded in a 96-well plate (7000–10,000 cells per well) and cultured at 37 °C overnight. Peptides in a series of concentrations were added to the medium, and cells were then incubated at 37 °C for 24 h. […] Finally, the absorbance was measured at 450 nm using a microplate reader (BioTek, Winooski, VT, USA).

Substance: INWLKLGKAVIDAL-NH2 [Protopolybia-MP III]
- effect on intracellular HSV-1 ICP0 expression level (HSV-1 ICP0; A549 cells): strongly inhibited
- effect on intracellular HSV-1 ICP0 expression level (HSV-1 ICP0; HCEC): strongly inhibited
- inhibition rate on intracellular HSV-1 ICP0 expression level (HSV-1 ICP0; 5 μg/mL): 67%
- inhibition rate on intracellular HSV-1 ICP0 expression level (HSV-1 ICP0; 10 μg/mL): 74%
- inhibition rate on intracellular HSV-1 ICP0 expression level (HSV-1 ICP0; 20 μg/mL): 96%
- effect on intracellular HSV-1 ICP0 expression level (HSV-1 ICP0; SK-N-MC): strongly inhibited
- extracellular HSV-1 level versus PBS (HSV-1; A549 cells treated 24 h): lower
- extracellular HSV-1 level versus PBS (HSV-1; HCEC treated 24 h): lower
- extracellular HSV-1 level versus PBS (HSV-1; SK-N-MC treated 24 h): lower
- extracellular HSV-1 particles (plaques) (HSV-1; Vero cells treated 24 h): fewer plaques
- cytotoxicity to SK-N-MC [1]: almost nontoxic
